From publication PMC9150124, “Design of a Potent, Selective, and Brain-Penetrant Inhibitor of Wnt-Deactivating Enzyme Notum by Optimization of a Crystallographic Fragment Hit” (Journal of Medicinal Chemistry, 2022)

How the values were obtained:
Assay in all cases: SelectScreen kinase profiling, SSBK ZLyte SP Technology
Format in all cases: biochemical
[1] = target: kinase named in conditions (Homo sapiens, UniProt P15056, V600E); settings: BRAF V599E, 10 μM
Procedure: (§1) Kinase selectivity screening was performed by Thermo Fisher Scientific (Paisley, U.K.) in their SelectScreen Biochemical Kinase Profiling Service. Assay information and data are presented in the Supporting Information.
(§2) Kinase selectivity screening was performed by ThermoFisher Scientific (Paisley, U.K.) in their SelectScreenTM
(§3) Biochemical Kinase Profiling service .

[2] = target: kinase named in conditions (Homo sapiens, UniProt Q13177); settings: PAK2 (PAK65), 10 μM
Procedure: as §1, §2, §3

[3] = target: kinase named in conditions (Homo sapiens, UniProt O15530)
Sequence of kinase named in conditions (Homo sapiens, UniProt O15530) (O15530 whole entry): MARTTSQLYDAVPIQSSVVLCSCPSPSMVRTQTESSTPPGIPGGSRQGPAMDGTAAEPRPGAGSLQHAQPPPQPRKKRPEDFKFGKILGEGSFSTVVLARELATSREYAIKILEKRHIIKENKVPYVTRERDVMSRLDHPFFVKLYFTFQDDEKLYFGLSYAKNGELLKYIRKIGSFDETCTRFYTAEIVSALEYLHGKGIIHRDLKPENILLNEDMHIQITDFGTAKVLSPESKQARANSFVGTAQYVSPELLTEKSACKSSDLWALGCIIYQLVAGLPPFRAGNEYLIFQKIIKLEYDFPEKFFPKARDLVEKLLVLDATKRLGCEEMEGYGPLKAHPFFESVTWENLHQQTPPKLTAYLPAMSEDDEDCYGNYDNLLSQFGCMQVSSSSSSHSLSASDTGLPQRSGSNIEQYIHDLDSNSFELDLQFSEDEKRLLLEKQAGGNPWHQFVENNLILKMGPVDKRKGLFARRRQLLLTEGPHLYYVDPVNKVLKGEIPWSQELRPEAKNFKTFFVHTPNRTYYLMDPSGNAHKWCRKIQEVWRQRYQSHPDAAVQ
Procedure: as §1, §2, §3

[4] = target: kinase named in conditions (Homo sapiens, UniProt P78527); settings: DNA-PK, 10 μM
Procedure: as §1, §2, §3

[5] = target: kinase named in conditions (Homo sapiens, UniProt O00418); settings: EEF2K, 10 μM
Procedure: as §1, §2, §3

[6] = target: kinase named in conditions (Homo sapiens, UniProt P10721, V559D); settings: KIT V559D, 10 μM
Procedure: as §1, §2, §3

[7] = target: kinase named in conditions (Homo sapiens, UniProt Q9Y6E0); settings: STK24 (MST3), 10 μM
Procedure: as §1, §2, §3

[8] = target: kinase named in conditions (Homo sapiens, UniProt Q9H4B4); settings: PLK3, 10 μM
Procedure: as §1, §2, §3

[9] = target: kinase named in conditions (Homo sapiens, UniProt P17948); settings: FLT1 (VEGFR1), 10 μM
Procedure: as §1, §2, §3

[10] = target: kinase named in conditions (Homo sapiens, UniProt Q9H0K1); settings: SNF1LK2, 10 μM
Procedure: as §1, §2, §3

[11] = target: kinase named in conditions (Homo sapiens, UniProt Q9UK32); settings: RPS6KA6 (RSK4), 10 μM
Procedure: as §1, §2, §3

[12] = target: kinase named in conditions (Homo sapiens, UniProt P00533, C797S); settings: EGFR (ErbB1) C797S, 10 μM
Procedure: as §1, §2, §3

[13] = target: kinase named in conditions (Homo sapiens, UniProt Q9UQM7); settings: CAMK2A (CaMKII alpha), 10 μM
Procedure: as §1, §2, §3

[14] = target: kinase named in conditions (Homo sapiens, UniProt Q16620); settings: NTRK2 (TRKB), 10 μM
Procedure: as §1, §2, §3

[15] = target: kinase named in conditions (Homo sapiens, UniProt P35626); settings: ADRBK2 (GRK3), 10 μM
Sequence of kinase named in conditions (Homo sapiens, UniProt P35626) (P35626 whole entry): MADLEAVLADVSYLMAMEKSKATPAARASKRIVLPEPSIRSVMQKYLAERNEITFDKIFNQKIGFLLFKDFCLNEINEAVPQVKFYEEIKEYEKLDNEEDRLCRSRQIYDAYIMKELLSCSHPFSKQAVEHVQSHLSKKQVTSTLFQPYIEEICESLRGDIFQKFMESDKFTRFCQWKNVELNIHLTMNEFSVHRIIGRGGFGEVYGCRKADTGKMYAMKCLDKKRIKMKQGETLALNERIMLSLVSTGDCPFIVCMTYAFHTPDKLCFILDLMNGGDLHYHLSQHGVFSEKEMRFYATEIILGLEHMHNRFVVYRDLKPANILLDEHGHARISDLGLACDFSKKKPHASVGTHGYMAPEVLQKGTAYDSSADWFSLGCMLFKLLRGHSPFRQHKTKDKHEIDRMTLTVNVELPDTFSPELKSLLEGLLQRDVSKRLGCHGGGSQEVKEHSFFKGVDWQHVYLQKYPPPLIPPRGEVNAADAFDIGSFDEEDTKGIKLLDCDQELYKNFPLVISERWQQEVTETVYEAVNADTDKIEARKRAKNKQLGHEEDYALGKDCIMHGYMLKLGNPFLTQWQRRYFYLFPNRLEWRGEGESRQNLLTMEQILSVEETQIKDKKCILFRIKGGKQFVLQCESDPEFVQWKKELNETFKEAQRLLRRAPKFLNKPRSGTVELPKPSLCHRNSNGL
Procedure: as §1, §2, §3

[16] = target: kinase named in conditions (Homo sapiens, UniProt Q9P0L2); settings: MARK1 (MARK), 10 μM
Sequence of kinase named in conditions (Homo sapiens, UniProt Q9P0L2) (Q9P0L2 whole entry): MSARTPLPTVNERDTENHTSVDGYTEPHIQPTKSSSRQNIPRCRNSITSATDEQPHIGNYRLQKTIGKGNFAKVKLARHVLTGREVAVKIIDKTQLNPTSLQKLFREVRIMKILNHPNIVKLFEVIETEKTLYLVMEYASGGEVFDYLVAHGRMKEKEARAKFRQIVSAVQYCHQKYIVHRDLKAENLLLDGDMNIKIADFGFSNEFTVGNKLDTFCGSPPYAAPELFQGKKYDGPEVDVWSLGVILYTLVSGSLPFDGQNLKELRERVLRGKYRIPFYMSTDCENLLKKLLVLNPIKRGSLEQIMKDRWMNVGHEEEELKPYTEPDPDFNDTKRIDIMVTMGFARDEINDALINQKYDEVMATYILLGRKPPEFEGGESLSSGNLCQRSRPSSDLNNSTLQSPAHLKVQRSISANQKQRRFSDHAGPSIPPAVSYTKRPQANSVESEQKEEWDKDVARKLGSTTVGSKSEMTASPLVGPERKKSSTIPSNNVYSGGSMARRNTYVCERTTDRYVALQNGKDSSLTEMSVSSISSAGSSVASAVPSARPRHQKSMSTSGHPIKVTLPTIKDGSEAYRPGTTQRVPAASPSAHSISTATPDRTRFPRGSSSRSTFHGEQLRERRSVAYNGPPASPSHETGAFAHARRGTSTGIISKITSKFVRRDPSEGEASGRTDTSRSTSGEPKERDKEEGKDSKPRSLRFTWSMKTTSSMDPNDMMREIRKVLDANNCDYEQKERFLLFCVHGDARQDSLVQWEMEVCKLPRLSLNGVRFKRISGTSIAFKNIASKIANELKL
Procedure: as §1, §2, §3

[17] = target: kinase named in conditions (Homo sapiens, UniProt P34947); settings: GRK5, 10 μM
Procedure: as §1, §2, §3

[18] = target: kinase named in conditions (Homo sapiens, UniProt Q02763); settings: TEK (Tie2), 10 μM
Procedure: as §1, §2, §3

[19] = target: kinase named in conditions (Homo sapiens, UniProt P21802); settings: FGFR2, 10 μM
Sequence of kinase named in conditions (Homo sapiens, UniProt P21802) (P21802 22-821): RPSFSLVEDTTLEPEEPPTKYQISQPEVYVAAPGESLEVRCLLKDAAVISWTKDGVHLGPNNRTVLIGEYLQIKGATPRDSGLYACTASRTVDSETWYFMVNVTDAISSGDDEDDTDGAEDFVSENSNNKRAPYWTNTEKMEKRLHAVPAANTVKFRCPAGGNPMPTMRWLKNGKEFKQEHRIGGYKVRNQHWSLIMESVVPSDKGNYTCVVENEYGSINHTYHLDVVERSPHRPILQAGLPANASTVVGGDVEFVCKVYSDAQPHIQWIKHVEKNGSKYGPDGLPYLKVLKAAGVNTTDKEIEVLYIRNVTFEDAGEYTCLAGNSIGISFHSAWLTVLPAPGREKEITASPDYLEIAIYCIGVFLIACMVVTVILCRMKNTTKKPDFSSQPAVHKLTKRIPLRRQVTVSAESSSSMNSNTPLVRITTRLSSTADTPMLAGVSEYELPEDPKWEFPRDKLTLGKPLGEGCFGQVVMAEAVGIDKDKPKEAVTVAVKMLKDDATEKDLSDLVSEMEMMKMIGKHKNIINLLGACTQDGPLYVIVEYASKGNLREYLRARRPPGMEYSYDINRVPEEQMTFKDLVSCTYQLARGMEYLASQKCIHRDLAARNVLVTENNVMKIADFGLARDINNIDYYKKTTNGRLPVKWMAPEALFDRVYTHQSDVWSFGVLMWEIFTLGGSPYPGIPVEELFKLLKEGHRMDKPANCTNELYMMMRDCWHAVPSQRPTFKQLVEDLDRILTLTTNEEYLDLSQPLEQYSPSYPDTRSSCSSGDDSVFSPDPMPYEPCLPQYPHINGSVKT
Procedure: as §1, §2, §3

[20] = target: kinase named in conditions (Homo sapiens, UniProt O14920); settings: IKBKB (IKK beta), 10 μM
Sequence of kinase named in conditions (Homo sapiens, UniProt O14920) (O14920 whole entry): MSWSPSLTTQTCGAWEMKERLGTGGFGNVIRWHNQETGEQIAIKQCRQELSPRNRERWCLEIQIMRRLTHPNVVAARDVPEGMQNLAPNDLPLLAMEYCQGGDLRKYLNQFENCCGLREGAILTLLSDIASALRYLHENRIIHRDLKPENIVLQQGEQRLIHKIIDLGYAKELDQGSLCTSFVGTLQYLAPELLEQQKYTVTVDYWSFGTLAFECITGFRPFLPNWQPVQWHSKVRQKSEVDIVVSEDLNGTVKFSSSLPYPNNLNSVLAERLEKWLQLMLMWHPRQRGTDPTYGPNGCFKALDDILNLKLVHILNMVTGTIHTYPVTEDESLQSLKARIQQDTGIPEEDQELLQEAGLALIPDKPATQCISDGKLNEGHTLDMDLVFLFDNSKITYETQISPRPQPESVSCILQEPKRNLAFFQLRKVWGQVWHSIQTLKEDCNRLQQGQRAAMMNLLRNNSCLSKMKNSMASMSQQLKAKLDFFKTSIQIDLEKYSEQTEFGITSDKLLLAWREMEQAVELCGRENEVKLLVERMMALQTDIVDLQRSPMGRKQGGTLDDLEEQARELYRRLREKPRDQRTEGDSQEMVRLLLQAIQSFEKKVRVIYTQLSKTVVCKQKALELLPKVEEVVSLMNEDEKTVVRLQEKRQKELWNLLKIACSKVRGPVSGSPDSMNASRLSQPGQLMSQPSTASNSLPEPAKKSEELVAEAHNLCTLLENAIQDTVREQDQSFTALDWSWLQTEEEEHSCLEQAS
Procedure: as §1, §2, §3

[21] = target: kinase named in conditions (Homo sapiens, UniProt P16234, T674I); settings: PDGFRA T674I, 10 μM
Procedure: as §1, §2, §3

[22] = target: kinase named in conditions (Homo sapiens, UniProt P32298); settings: GRK4, 10 μM
Procedure: as §1, §2, §3

[23] = target: kinase named in conditions (Homo sapiens, UniProt Q08881); settings: ITK, 10 μM
Procedure: as §1, §2, §3

[24] = target: kinase named in conditions (Homo sapiens, UniProt P14616); settings: INSRR (IRR), 10 μM
Procedure: as §1, §2, §3

[25] = target: kinase named in conditions (Homo sapiens, UniProt P36888, D835Y); settings: FLT3 D835Y, 10 μM
Procedure: as §1, §2, §3

[26] = target: kinase named in conditions (Homo sapiens, UniProt Q9BXA7); settings: STK22D (TSSK1), 10 μM
Procedure: as §1, §2, §3

[27] = target: kinase named in conditions (Homo sapiens, UniProt P07949, S891A); settings: RET S891A, 10 μM
Procedure: as §1, §2, §3

[28] = target: kinase named in conditions (Homo sapiens, UniProt Q9H792); settings: PEAK1, 10 μM
Procedure: as §1, §2, §3

[29] = target: kinase named in conditions (Homo sapiens, UniProt P07947); settings: YES1, 10 μM
Procedure: as §1, §2, §3

[30] = target: kinase named in conditions (Homo sapiens, UniProt P54753); settings: EPHB3, 10 μM
Procedure: as §1, §2, §3

[31] = target: kinase named in conditions (Homo sapiens, UniProt P00533, C797S/L858R/T790M); settings: EGFR (ErbB1) T790M C797S L858R, 10 μM
Procedure: as §1, §2, §3

[32] = target: kinase named in conditions (Homo sapiens, UniProt O60674)
Sequence of kinase named in conditions (Homo sapiens, UniProt O60674) (O60674 whole entry): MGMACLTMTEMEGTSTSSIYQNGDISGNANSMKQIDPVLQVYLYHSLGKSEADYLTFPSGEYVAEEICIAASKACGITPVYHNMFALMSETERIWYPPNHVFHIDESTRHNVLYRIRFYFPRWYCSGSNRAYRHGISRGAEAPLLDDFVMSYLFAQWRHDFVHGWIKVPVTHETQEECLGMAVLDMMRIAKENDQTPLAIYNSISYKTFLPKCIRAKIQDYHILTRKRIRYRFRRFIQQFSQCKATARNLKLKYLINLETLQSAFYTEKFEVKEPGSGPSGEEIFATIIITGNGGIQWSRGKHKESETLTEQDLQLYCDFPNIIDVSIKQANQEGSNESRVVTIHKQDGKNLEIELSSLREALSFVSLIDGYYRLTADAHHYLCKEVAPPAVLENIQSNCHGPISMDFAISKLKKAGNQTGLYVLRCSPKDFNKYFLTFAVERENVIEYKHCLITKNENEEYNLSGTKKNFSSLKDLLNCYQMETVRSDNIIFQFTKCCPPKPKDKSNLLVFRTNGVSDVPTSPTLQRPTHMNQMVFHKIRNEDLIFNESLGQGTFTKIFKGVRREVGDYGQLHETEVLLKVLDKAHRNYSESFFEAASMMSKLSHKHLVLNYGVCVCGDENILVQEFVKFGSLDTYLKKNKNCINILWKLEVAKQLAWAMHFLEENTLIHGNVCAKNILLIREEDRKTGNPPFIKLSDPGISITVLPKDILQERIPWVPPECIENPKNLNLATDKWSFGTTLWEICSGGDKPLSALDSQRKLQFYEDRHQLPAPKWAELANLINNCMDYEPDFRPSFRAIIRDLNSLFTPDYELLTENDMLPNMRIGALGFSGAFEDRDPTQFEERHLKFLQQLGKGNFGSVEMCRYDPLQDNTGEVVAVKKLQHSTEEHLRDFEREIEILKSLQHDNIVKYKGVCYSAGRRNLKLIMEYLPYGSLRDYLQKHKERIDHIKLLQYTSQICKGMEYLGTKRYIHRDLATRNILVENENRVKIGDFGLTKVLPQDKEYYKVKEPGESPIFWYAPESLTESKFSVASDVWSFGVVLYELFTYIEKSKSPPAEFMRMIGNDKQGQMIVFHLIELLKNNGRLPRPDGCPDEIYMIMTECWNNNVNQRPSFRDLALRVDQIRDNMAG
Procedure: as §1, §2, §3

[33] = target: kinase named in conditions (Homo sapiens, UniProt P00533, L858R/T790M); settings: EGFR (ErbB1) T790M L858R, 10 μM
Procedure: as §1, §2, §3

Question: `FC(F)(F)c1c(Cl)ccc(-n2ccnn2)c1Cl` [8l, 1-(2,4-Dichloro-3-(trifluoromethyl)phenyl)-1H-1,2,3-triazole] was tested. Which inhibition at 10 µM [1] did it give?
Answer: Its inhibition at 10 µM is 5%.

Question: What about the inhibition at 10 µM [2] of the same compound?
Answer: Its inhibition at 10 µM is 5%.

Question: What about the inhibition at 10 µM ([3]; PDK1, 10 μM) of the same compound?
Answer: Its inhibition at 10 µM is 4%.

Question: And the inhibition at 10 µM ([3]; PDK1 Direct, 10 μM)?
Answer: The inhibition at 10 µM was -2%.

Question: What about the inhibition at 10 µM [4] of the same compound?
Answer: Its inhibition at 10 µM is 0%.

Question: And the inhibition at 10 µM [5]?
Answer: Its inhibition at 10 µM is 3%.

Question: And the inhibition at 10 µM [6]?
Answer: Its inhibition at 10 µM is -3%.

Question: What about the inhibition at 10 µM [7] of the same compound?
Answer: Its inhibition at 10 µM is 5%.

Question: What about the inhibition at 10 µM [8] of the same compound?
Answer: Its inhibition at 10 µM is 5%.

Question: And the inhibition at 10 µM [9]?
Answer: Its inhibition at 10 µM is 8%.

Question: And the inhibition at 10 µM [10]?
Answer: The inhibition at 10 µM was 2%.

Question: And the inhibition at 10 µM [11]?
Answer: The inhibition at 10 µM was 0%.

Question: And the inhibition at 10 µM [12]?
Answer: Its inhibition at 10 µM is -2%.

Question: What about the inhibition at 10 µM [13] of the same compound?
Answer: The inhibition at 10 µM was -2%.

Question: And the inhibition at 10 µM [14]?
Answer: Its inhibition at 10 µM is 5%.

Question: What about the inhibition at 10 µM [15] of the same compound?
Answer: Its inhibition at 10 µM is -1%.

Question: What about the inhibition at 10 µM [16] of the same compound?
Answer: The inhibition at 10 µM was -1%.

Question: What about the inhibition at 10 µM [17] of the same compound?
Answer: The inhibition at 10 µM was -2%.

Question: What about the inhibition at 10 µM [18] of the same compound?
Answer: Its inhibition at 10 µM is -1%.

Question: What about the inhibition at 10 µM [19] of the same compound?
Answer: The inhibition at 10 µM was 11%.

Question: And the inhibition at 10 µM [20]?
Answer: The inhibition at 10 µM was -1%.

Question: What about the inhibition at 10 µM [21] of the same compound?
Answer: Its inhibition at 10 µM is 4%.

Question: And the inhibition at 10 µM [22]?
Answer: Its inhibition at 10 µM is -3%.

Question: And the inhibition at 10 µM [23]?
Answer: Its inhibition at 10 µM is -4%.

Question: And the inhibition at 10 µM [24]?
Answer: Its inhibition at 10 µM is 11%.

Question: And the inhibition at 10 µM [25]?
Answer: The inhibition at 10 µM was 3%.

Question: And the inhibition at 10 µM [26]?
Answer: Its inhibition at 10 µM is -5%.

Question: What about the inhibition at 10 µM [27] of the same compound?
Answer: The inhibition at 10 µM was 10%.

Question: What about the inhibition at 10 µM [28] of the same compound?
Answer: The inhibition at 10 µM was 20%.

Question: What about the inhibition at 10 µM [29] of the same compound?
Answer: Its inhibition at 10 µM is 3%.

Question: And the inhibition at 10 µM [30]?
Answer: The inhibition at 10 µM was -8%.

Question: And the inhibition at 10 µM [31]?
Answer: Its inhibition at 10 µM is -17%.

Question: And the inhibition at 10 µM ([32]; JAK2, 10 μM)?
Answer: The inhibition at 10 µM was 3%.

Question: And the inhibition at 10 µM ([32]; JAK2 JH1 JH2, 10 μM)?
Answer: Its inhibition at 10 µM is -1%.

Question: What about the inhibition at 10 µM [33] of the same compound?
Answer: Its inhibition at 10 µM is 12%.
